How the values were obtained:
bone marrow cells = conditions: continuous intravenous administration; cited from earlier work
[1] = tested on: BFU-e (burst forming unit-erythroid) colonies from peripheral blood mononuclear cells; assay: Stimulation of erythroid proliferation in cell cultures (BFU-e colony growth); type: cell-based, human; conditions: 0.1 mM; 13-14 days; compared with control cultures
Method: Peripheral blood was collected from normal volunteers and patients with anemia due to sickle cell disease or thalassemia. Mononuclear cells were isolated by Ficoll-Hypaque (Pharmacia Biotech; Piscataway, N.J.) centrifugation and cultured in Iscove's Modified Dulbecco's Media (IMDM; GIBCO/BRL; Grand Island, N.Y.) supplemented with 10% fetal calf serum, 300 μg/ml glutamine, 3 units/ml IL-3 (Amgen; Thousand Oaks, Calif.), and 2 units/ml erythropoietin (Terry Fox Labs; Vancouver, B.C.). Chemical compounds were obtained from Sigma Chemical (St. Louis, Mo.) or Aldrich Chemical (Milwaukee, Wis.), unless otherwise indicated, and formulated into pharmaceutical compositions by dissolving in aqueous solutions of media or sterile water pH adjusted to about 7.4. Solutions were sterilized by passage at least once through 0.22 micron Nalgene filters and added to cell cultures at final concentrations that are pharmaceutically achievable in vivo (typically between about 0.1 mM to 2.0 mM). Cells were incubated with compounds for between 13-14 days at 37° C. in humidified 5% CO2, and fed and passed, as necessary. Colony growth, proportion of fetal globin-expressing cells and amounts of fetal globin production were assayed. Results are presented in Table 1 as BFU-e stimulation (colony growth).

[2] = tested on: erythroid cells (peripheral blood cells); assay: Erythroid cell viability by Calcein-AM fluorescent staining (FIG. 2); type: cell-based; conditions: 0.5 mM
Method: Compositions were tested for the ability to directly stimulate erythroid cell growth. Cell growth stimulation is a useful property for an agent to be used to treat anemias and distinguishes such agents from the cytotoxic drugs currently being tested for treatment of hemoglobinopathies. Cell viability analyses were performed using fluorescent staining to detect living cells. Cells were in log phase of growth in 6-well dishes when used in proliferation assays. For enumeration of living cells, wells were washed once with medium to remove nonadherent or dead cells. Remaining live cells were labeled with 2 μM 2′,7′-bis-(carboxyethyl)-5-(and 6)-carboxy-fluorescein acetoxy-methyl ester (Calcein-AM) (Molecular Probes; Eugene, Oreg.) for 20 minutes at 37° C. and washed once. Fluorescence intensity of live cells was read on a CytoFluor 2300 Fluorescence Plate Scanner (Millipore; Bedford, Mass.) at excitation and emission wavelengths of 485 and 530 nm, respectively. The fluorescence intensity of a well was proportional to the number of living cells in the well. Background fluorescence was measured separately for each plate and subtracted from all readings. Each experiment was performed in triplicate or quadruplicate. The standard deviation (SD) of repetitive readings was less than 30% of the mean. Results are depicted in FIG. 2.

[3] = tested on: erythroid progenitor cells cultured from human cord blood; assay: Fetal globin expression in human cell cultures (3H-leucine labelled globin chains, densitometry); type: cell-based
Method: Compositions were tested for activity in inducing fetal globin expression and protein production in erythroid progenitor cells cultured from human cord blood and analyzed as described by S. P. Perrine et al. (Blood 74: 454-60, 1989). Briefly, mononuclear cells were cultured in IMDM with 30% fetal calf serum and 2 units erythropoietin per ml to induce erythroid differentiation. Colonies were harvested on day 12-13, incubated with radio-labelled (^3H) leucine, and further incubated in leucine-free media, still in the presence of compounds, overnight. Globin composition in the erythroid cells was analyzed by laser densitometry of electrophoretically separated globin chains stained with Coomassie blue, and by autoradiography. Treated cells were incubated for 12-13 days (Table 2, Experiments A and B) or overnight (Table 2, Experiment C) in the presence of the indicated compounds and compared to untreated control cells cultured from the same human subject.

[4] = tested on: human erythroid cell line K562; assay: Cell viability / growth of K562 by Calcein-AM fluorescence; type: cell-based; conditions: 0.5 mM; over 3 days
Method: Such activities might limit their utility for treatment of anemias such as occur in thalassemia, but alternatively would be useful for anticancer effects. To determine cell viability, human erythroid cells were cultured in the presence and absence of these compounds for 4 days and the amount of DNA fragmentation which occurred was measured.
Cell viability analyses were performed using fluorescent staining to detect living cells. Cells were in log phase of growth in 6-well dishes when used in proliferation assays. For enumeration of living cells, wells were washed once with medium to remove nonadherent or dead cells. Remaining live cells were labeled with Calcein-AM for 20 minutes at 37° C. and washed once. Fluorescence intensity of adherent live cells was read on a CytoFluor 2300 Fluorescence Plate Scanner (Millipore; Bedford, Mass.) at excitation and emission wavelengths of 485 and 530 nm, respectively. The fluorescence intensity of a well was proportional to the number of living cells in the well. Background fluorescence was measured separately for each plate and subtracted from all readings. Each experiment was performed in triplicate or quadruplicate. The standard deviation (SD) of repetitive readings was less than 30% of the mean.
At higher concentrations, still easily achievable in vivo, arginine butyrate (0.5 mM) and dihydrocinnamic acid (greater than 0.5 mM) inhibited growth of this tumor cell line by approximately 50%. Therefore, these compounds are also useful as anti-tumor agents.

anemic juvenile baboons = assay: In vivo reticulocyte proliferation and globin expression in phlebotomized anemic baboons; set-up: species or system baboon
Method: Experiments were performed to determine if administration of the chemical compositions could induce fetal globin gene expression in an in vivo model similar to humans (S. P. Perrin et al., Brit. J. Haematol. 88:555-61, 1994). Briefly, chemicals were prepared as sterile pharmaceutical solutions in pH adjusted sterile water. A variety of chemical compositions were administered sequentially to some baboons. After administration of one compound, a wash-out period with no compound administration was maintained until reticulocytes returned to base line prior to administration of the next compound. This was done, at least partly, to compare the magnitude of response which occurred within the same individual animal to different compounds.
Briefly, juvenile female baboons (2 years old) were catheterized with arterial and venous catheters and phlebotomized gradually every day to maintain a moderate anemia of 7.0 to 7.5 grams hemoglobin/dl. Fetal reticulocytes, the newly produced red blood cells containing fetal globin, were assayed using a monoclonal antibody against fetal globin (HbF) as described by G. Dover et al. (Blood 67:735-38, 1986). Briefly, blood was stained with two antibodies, one specific for reticulocytes and another against fetal globin protein. The amount of antibody bound cells was determined by FACS analysis. Globin chain synthesis was assayed as described by J. B. Clegg et al. (J. Mol. Biol. 19:91-108, 1966). Briefly, reticulocytes were radio-labeled with ^3H-leucine which was incorporated in equal proportions into actively synthesized globin chains. After incubation in leucine-free media, cells were washed, and globin proteins were separated and purified by column chromatography. Radioactivity incorporated into each peak is compared and the ratios of gamma to gamma plus beta globin calculated. Each animal served as its own control with baseline monitoring assays performed for 4-6 weeks before any drug was administered. Phlebotomy was continued daily, so that peripheral HbF levels in the animals were not considered to be accurate over the short treatment time-frames and were not monitored. Safety monitoring was performed by frequent physical examinations, quantitation of food eaten, activity and frequent chemistry and hematology monitoring. Complete blood counts were assayed before, during and after treatment. Results presented were not adjusted to account for the daily phlebotomy.

Row | Structure (SMILES) | increase in γ globin mRNA of bone marrow cells (bone marrow cells) | BFU-e Stimulation (colony growth) [1] [%] | erythroid cell growth and proliferation compared to untreated controls (FIG. 2) [2] | Gamma Increase ([3]; Exp. A, 0.1 mM, 12-13 days, above untreated cells) [%] | Gamma Increase ([3]; Exp. C, 0.1 mM, overnight) [%] | Gamma Increase ([3]; Exp. C, 0.2 mM, overnight) [%] | Gamma Increase ([3]; Exp. C, 0.5 mM, overnight) [%] | growth of K562 [4] | fetal reticulocytes after treatment (anemic juvenile baboons; infused 4 days, 300 to 500 mg/kg per day, from 10%) [%] | red blood cell count after treatment (anemic juvenile baboons; intravenous 1,000 mg/kg/day, 4 days, from 2.3) | total hemoglobin after treatment (anemic juvenile baboons; intravenous 1,000 mg/kg/day, 4 days, from 6.6) [grams/dl] | packed red blood cell volume after treatment (anemic juvenile baboons; intravenous 1,000 mg/kg/day, 4 days, from 20.9%)
1 | Nc1ncn([C@@H]2O[C@H](CO)[C@@H](O)[C@H]2O)c(=O)n1 [AZA, 5-azacytidine] | five- to seven-fold |  |  |  |  |  |  |  |  |  |  | 
2 | O=C(O)CCc1ccccc1 [DHC, Dihydrocinnamic acid] |  | 124 | either had no effect or stimulated erythroid cell growth and proliferation | 12.0 | 24 | 20.0 | 19 | either did not inhibit, or slightly enhanced growth | 17 | 2.73 ×10^6 cells/μl | 7.3 | 22.7 % of the blood
